This passage reports IC50 results from PubChem BioAssay AID624382 (Sanford-Burnham Center for Chemical Genomics, 2012).

Each structure is given as a SMILES string. The source made the active and inactive calls. No rule for the calls is given here.

As usually defined, the IC50 is the concentration that gives 50% inhibition.

For the assay, the target named is Small ubiquitin-related modifier 1 (Homo sapiens) (UniProt P63165). Nature of the assay: inhibitors of SUMO1 peptide binding, dose response, biochemical, fluorescence polarization, uHTS hits (AID 624382). Background: In fluorescence polarisation assays a small probe gives low polarisation when free and higher when bound to something large.
Small ubiquitin-related modifier 1 (Homo sapiens), sequence (P63165 whole entry, looked up): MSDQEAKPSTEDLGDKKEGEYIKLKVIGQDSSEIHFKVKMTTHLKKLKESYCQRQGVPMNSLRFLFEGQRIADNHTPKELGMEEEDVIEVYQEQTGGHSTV
For `C=Cc1c(C)c2cc3[nH]c(cc4nc(cc5nc(cc1[nH]2)C(C)=C5CCC(=O)O)C(CCC(=O)O)=C4C)c(C)c3C=C`, the IC50 was > 66.6 µM (inactive).

Regarding `CCN(CC)P(=O)(NC(=O)C(Cl)(Cl)Cl)N(CC)CC.[Cl-].[Cl-].[Cl-].[Nd+3]`, the IC50 was > 66.6 µM (inactive). With `C[c-]1[c-](C)[c-](C)[c-](C)[c-]1C.[Fe].c1cc2nccc(N3CCCC3)[c-]2c1` (stereo not drawn), the half-inhibitory concentration (IC50) was 11.9 µM.
